Source: US20050182039A1, “Use of Loteprednol etabonate for the treatment of dry eye” (Bausch & Lomb Incorporated, priority 2004, published 2005)

Test system: patients with KCS with inflammation
Test: four-week topical use of a Loteprednol etabonate ophthalmic formulation in patients with KCS with inflammation
Format: in vivo, human
Description: U.S. Patent Application. Publication No. 20030008853 discloses 22,29-epoxy-3,4,6,7,29-pentahydroxy-,(3α,4β,5α,6α,7-β,14β,22S)-stigmastan-15-one as useful for treating dry eye disorders and other disorders requiring the wetting of the eye. This publication further notes that corticosteroids, such as prednisolone, dexamethasone, fluoromethalone, hydrocortisone, loteprednol, triamcinolone, etc., cannot be used for prolonged therapy in dry eye patients without causing side effects. This publication further notes that steroid-related complications including increased intraocular pressure and cataract formation have been observed in dry eye patients treated with corticosteroids after several months of therapy.

Structure (SMILES): CCOC(=O)O[C@]1(C(=O)OCCl)CC[C@H]2[C@@H]3CCC4=CC(=O)C=C[C@]4(C)[C@H]3[C@@H](O)C[C@@]21C [Loteprednol etabonate, (11β,17α),-17-[(Ethoxycarbonyl)oxy]-11-hydroxy-3-oxoandrosta-1,4-diene-17-carboxylic acid chloromethyl ester]
- treatment effect in subsets of patients with a moderate to severe inflammatory component (more severe KCS) (patient subsets with moderate to severe inflammatory component): differential treatment effect, which was in some cases significant
- efficacy in the management of patients with KCS with inflammation (used for four weeks): efficacious
- tolerability in the management of patients with KCS with inflammation (used for four weeks): well tolerated
